Test results from PMC4521635 (Clinical cancer research : an official journal of the …, 2011).
Entries after “also recorded” stand apart in the source; their conditions may differ. Where two headings read alike, the source gives them in different places.

What was measured:
[1] = 4-day continuous infusion with cyclophosphamide and carboplatin; cited from earlier work
[2] = clinical; assay type: in vivo, human
[3] = cited from earlier work
[4] = median, dose level 7, daily dose 21.3 mg/m^2 for 3 days, day 8, phase I patients
[5] = Expanded MTD cohort, TIME + HCT
[6] = TIME regimen with autologous HCT
[7] = dose level 1, topotecan 10 mg/m^2, TIME + HCT
[8] = dose level 2, topotecan 15 mg/m^2, TIME + HCT
[9] = dose level 3, topotecan 20 mg/m^2, TIME + HCT
[10] = dose level 4, topotecan 27 mg/m^2, TIME + HCT
[11] = dose level 5, topotecan 36 mg/m^2, TIME + HCT
[12] = dose level 6, topotecan 48 mg/m^2, TIME + HCT
[13] = dose level 7, topotecan 64 mg/m^2, TIME + HCT
[14] = dose level 8, topotecan 85 mg/m^2, TIME + HCT
[15] = with paclitaxel and carboplatin

Compound: CC[C@@]1(O)C(=O)OCc2c1cc1n(c2=O)Cc2cc3c(CN(C)C)c(O)ccc3nc2-1 [topotecan]
- median topotecan clearance [1]: 184 mL/min/m^2
- AUC, Lactone ([2]; human, in vivo, 3.3 mg/m2): 0.26 µM·h
- AUC, Total ([2]; human, in vivo, 3.3 mg/m2): 0.56 µM·h
- Cl, Lactone ([2]; human, in vivo, 3.3 mg/m2): 27.95 L/h/m^2
- Cl, Total ([2]; human, in vivo, 3.3 mg/m2): 12.97 L/h/m^2
- Cmax ([2]; human, in vivo, 3.3 mg/m2): 180 nM
- Cmax, Total ([2]; human, in vivo, 3.3 mg/m2): 180 nM
- T1/2, Lactone ([2]; human, in vivo, 3.3 mg/m2): 2.6 h
- T1/2, Total ([2]; human, in vivo, 3.3 mg/m2): 2.7 h
- Vdss, Lactone ([2]; human, in vivo, 3.3 mg/m2): 56.6 L/m^2
- Vdss, Total ([2]; human, in vivo, 3.3 mg/m2): 49.2 L/m^2
- AUC ([2]; human, in vivo, 5 mg/m2): 0.27 µM·h
- Cl, Lactone ([2]; human, in vivo, 5 mg/m2): 41.19 L/h/m^2
- Cl, Total ([2]; human, in vivo, 5 mg/m2): 15.44 L/h/m^2
- Cmax ([2]; human, in vivo, 5 mg/m2): 200 nM
- T1/2, Total ([2]; human, in vivo, 5 mg/m2): 3.0 h
- half-life ([2]; human, in vivo, 5 mg/m2): 2.7 h
- AUC ([2]; human, in vivo, 6.8 mg/m2): 0.38 µM·h
- AUC, Total ([2]; human, in vivo, 6.8 mg/m2): 0.86 µM·h
- Cl, Lactone ([2]; human, in vivo, 6.8 mg/m2): 39.59 L/h/m^2
- Cl, Total ([2]; human, in vivo, 6.8 mg/m2): 17.14 L/h/m^2
- Cmax ([2]; human, in vivo, 6.8 mg/m2): 230 nM
- Cmax, Total ([2]; human, in vivo, 6.8 mg/m2): 330 nM
- T1/2, Total ([2]; human, in vivo, 6.8 mg/m2): 2.6 h
- Vdss, Lactone ([2]; human, in vivo, 6.8 mg/m2): 113 L/m^2
- Vdss, Total ([2]; human, in vivo, 6.8 mg/m2): 57.5 L/m^2
- half-life ([2]; human, in vivo, 6.8 mg/m2): 3.4 h
- AUC, Lactone ([2]; human, in vivo, 8.9 mg/m2): 0.70 µM·h
- AUC, Total ([2]; human, in vivo, 8.9 mg/m2): 1.63 µM·h
- Cl, Lactone ([2]; human, in vivo, 8.9 mg/m2): 28.1 L/h/m^2
- Cl, Total ([2]; human, in vivo, 8.9 mg/m2): 12.05 L/h/m^2
- Cmax ([2]; human, in vivo, 8.9 mg/m2): 480 nM
- Cmax, Total ([2]; human, in vivo, 8.9 mg/m2): 520 nM
- T1/2, Lactone ([2]; human, in vivo, 8.9 mg/m2): 3.1 h
- Vdss, Lactone ([2]; human, in vivo, 8.9 mg/m2): 91.6 L/m^2
- Vdss, Total ([2]; human, in vivo, 8.9 mg/m2): 53.7 L/m^2
- AUC, Lactone ([2]; human, in vivo, 12 mg/m2): 0.88 µM·h
- AUC, Total ([2]; human, in vivo, 12 mg/m2): 1.86 µM·h
- Cl, Lactone ([2]; human, in vivo, 12 mg/m2): 30.11 L/h/m^2
- Cl, Total ([2]; human, in vivo, 12 mg/m2): 16.43 L/h/m^2
- Cmax ([2]; human, in vivo, 12 mg/m2): 610 nM
- Cmax, Total ([2]; human, in vivo, 12 mg/m2): 650 nM
- T1/2, Lactone ([2]; human, in vivo, 12 mg/m2): 3.2 h
- T1/2, Total ([2]; human, in vivo, 12 mg/m2): 2.9 h
- Vdss, Lactone ([2]; human, in vivo, 12 mg/m2): 94.4 L/m^2
- Vdss, Total ([2]; human, in vivo, 12 mg/m2): 53.3 L/m^2
- AUC, Lactone ([2]; human, in vivo, 15.7 mg/m2): 1.48 µM·h
- AUC, Total ([2]; human, in vivo, 15.7 mg/m2): 2.77 µM·h
- Cl, Lactone ([2]; human, in vivo, 15.7 mg/m2): 23.53 L/h/m^2
- Cl, Total ([2]; human, in vivo, 15.7 mg/m2): 12.62 L/h/m^2
- Cmax ([2]; human, in vivo, 15.7 mg/m2): 800 nM
- Cmax, Total ([2]; human, in vivo, 15.7 mg/m2): 870 nM
- T1/2, Lactone ([2]; human, in vivo, 15.7 mg/m2): 3.3 h
- T1/2, Total ([2]; human, in vivo, 15.7 mg/m2): 3.1 h
- Vdss, Lactone ([2]; human, in vivo, 15.7 mg/m2): 76.6 L/m^2
- Vdss, Total ([2]; human, in vivo, 15.7 mg/m2): 48.1 L/m^2
- T1/2, Lactone ([2]; human, in vivo, 21.3 mg/m2): 2.7 h
- T1/2, Total ([2]; human, in vivo, 21.3 mg/m2): 2.6 h
- AUC, Lactone ([2]; human, in vivo, 28.4 mg/m2): 2.40 µM·h
- AUC, Total ([2]; human, in vivo, 28.4 mg/m2): 5.73 µM·h
- Cl, Lactone ([2]; human, in vivo, 28.4 mg/m2): 25.77 L/h/m^2
- Cl, Total ([2]; human, in vivo, 28.4 mg/m2): 10.78 L/h/m^2
- Cmax ([2]; human, in vivo, 28.4 mg/m2): 1670 nM
- Cmax, Total ([2]; human, in vivo, 28.4 mg/m2): 2120 nM
- T1/2, Total ([2]; human, in vivo, 28.4 mg/m2): 2.4 h
- Vdss, Lactone ([2]; human, in vivo, 28.4 mg/m2): 81.5 L/m^2
- Vdss, Total ([2]; human, in vivo, 28.4 mg/m2): 41.1 L/m^2
- Cl, Lactone [2, 4]: 29.10 L/h/m^2
- Cl, Total [2, 4]: 13.43 L/h/m^2
- Vdss, Lactone [2, 4]: 95.8 L/m^2
- Vdss, Total [2, 4]: 63.9 L/m^2
- MTD of topotecan (daily dose) (3 days, in combination with ifosfamide, mesna, etoposide, followed by autologous HCT): 21.3 mg/m^2/d
- Nonrelapse deaths, cause [5]: Arrhythmia (1) and bacterial sepsis (1)
- Nonrelapse deaths, number of patients [5]: 2 (13%)
- dose-limiting toxicity [6]: Mucositis; also recorded: gastrointestinal toxicity
- recommended phase II dose [6]: 64 mg/m^2
- Cortical function, number of patients with grade 3 or 4 [7]: 0
- Enteritis, number of patients with grade 3 or 4 [7]: 0
- Hematuria, number of patients with grade 3 or 4 [7]: 0
- Mucositis (grade 4), number of patients [7]: 1 (25%)
- Nonrelapse deaths, number of patients [7]: 0
- Number of days with grade 4 mucositis, median (range) [7]: 0 (0-1) days
- Peripheral nerve function, number of patients with grade 3 or 4 [7]: 0
- Pulmonary clinical status, number of patients with grade 3 or 4 [7]: 1 (25%)
- Reduction in ejection fraction, number of patients with grade 3 or 4 [7]: 0
- Cortical function, number of patients with grade 3 or 4 [8]: 1 (17%)
- Enteritis, number of patients with grade 3 or 4 [8]: 1 (17%)
- Hematuria, number of patients with grade 3 or 4 [8]: 1 (17%)
- Mucositis (grade 4), number of patients [8]: 2 (33%)
- Nonrelapse deaths, number of patients [8]: 0
- Number of days with grade 4 mucositis, median (range) [8]: 0 (0-10) days
- Peripheral nerve function, number of patients with grade 3 or 4 [8]: 1 (17%)
- Pulmonary clinical status, number of patients with grade 3 or 4 [8]: 1 (17%)
- Reduction in ejection fraction, number of patients with grade 3 or 4 [8]: 0
- Cortical function, number of patients with grade 3 or 4 [9]: 0
- Enteritis, number of patients with grade 3 or 4 [9]: 3 (75%)
- Hematuria, number of patients with grade 3 or 4 [9]: 1 (25%)
- Mucositis (grade 4), number of patients [9]: 2 (50%)
- Nonrelapse deaths, number of patients [9]: 0
- Number of days with grade 4 mucositis, median (range) [9]: 2.5 (0-6) days
- Peripheral nerve function, number of patients with grade 3 or 4 [9]: 0
- Pulmonary clinical status, number of patients with grade 3 or 4 [9]: 0
- Reduction in ejection fraction, number of patients with grade 3 or 4 [9]: 0
- Cortical function, number of patients with grade 3 or 4 [10]: 1 (20%)
- Enteritis, number of patients with grade 3 or 4 [10]: 3 (60%)
- Hematuria, number of patients with grade 3 or 4 [10]: 0
- Mucositis (grade 4), number of patients [10]: 4 (80%)
- Nonrelapse deaths, number of patients [10]: 0
- Number of days with grade 4 mucositis, median (range) [10]: 2 (0-7) days
- Peripheral nerve function, number of patients with grade 3 or 4 [10]: 0
- Pulmonary clinical status, number of patients with grade 3 or 4 [10]: 1 (20%)
- Reduction in ejection fraction, number of patients with grade 3 or 4 [10]: 1 (20%)
- Cortical function, number of patients with grade 3 or 4 [11]: 1 (11 %)
- Enteritis, number of patients with grade 3 or 4 [11]: 4 (44%)
- Hematuria, number of patients with grade 3 or 4 [11]: 0
- Mucositis (grade 4), number of patients [11]: 5 (56%)
- Nonrelapse deaths, number of patients [11]: 0
- Number of days with grade 4 mucositis, median (range) [11]: 1 (0-20) days
- Peripheral nerve function, number of patients with grade 3 or 4 [11]: 0
- Pulmonary clinical status, number of patients with grade 3 or 4 [11]: 0
- Reduction in ejection fraction, number of patients with grade 3 or 4 [11]: 0
- Cortical function, number of patients with grade 3 or 4 [12]: 0
- Enteritis, number of patients with grade 3 or 4 [12]: 2 (40%)
- Hematuria, number of patients with grade 3 or 4 [12]: 0
- Mucositis (grade 4), number of patients [12]: 5 (100%)
- Nonrelapse deaths, number of patients [12]: 0
- Number of days with grade 4 mucositis, median (range) [12]: 5 (1-9) days
- Peripheral nerve function, number of patients with grade 3 or 4 [12]: 0
- Pulmonary clinical status, number of patients with grade 3 or 4 [12]: 0
- Reduction in ejection fraction, number of patients with grade 3 or 4 [12]: 0
- Cortical function, number of patients with grade 3 or 4 [13]: 0
- Enteritis, number of patients with grade 3 or 4 [13]: 4 (57%)
- Hematuria, number of patients with grade 3 or 4 [13]: 1 (14%)
- Mucositis (grade 4), number of patients [13]: 7 (100%)
- Nonrelapse deaths, cause [13]: Fungal infection
- Nonrelapse deaths, number of patients [13]: 1 (14%)
- Number of days with grade 4 mucositis, median (range) [13]: 6 (4-11) days
- Peripheral nerve function, number of patients with grade 3 or 4 [13]: 1 (14%)
- Pulmonary clinical status, number of patients with grade 3 or 4 [13]: 0
- Reduction in ejection fraction, number of patients with grade 3 or 4 [13]: 0
- Cortical function, number of patients with grade 3 or 4 [14]: 0
- Enteritis, number of patients with grade 3 or 4 [14]: 3 (60%)
- Hematuria, number of patients with grade 3 or 4 [14]: 1 (20%)
- Mucositis (grade 4), number of patients [14]: 4 (80%)
- Nonrelapse deaths, cause [14]: Septic shock
- Nonrelapse deaths, number of patients [14]: 1 (20%)
- Number of days with grade 4 mucositis, median (range) [14]: 8 (0-12) days
- Peripheral nerve function, number of patients with grade 3 or 4 [14]: 0
- Pulmonary clinical status, number of patients with grade 3 or 4 [14]: 0
- Reduction in ejection fraction, number of patients with grade 3 or 4 [14]: 1 (20%)
- dose-limiting toxicity ([3]; seen at 6 mg/m^2/d, with cyclophosphamide and carboplatin): severe stomatitis requiring parenteral nutrition and narcotic administration
- MTD ([3]; single agent, 72-hour continuous infusion, largest dose 11 mg/m^2): not reached
- dose-limiting toxicity ([3]; single-agent topotecan with hematopoietic cell support): diarrhea
- dose-limiting toxicities [3, 15]: hemorrhagic stomatitis and prolonged hematopoietic recovery
- topotecan dose at which 4 cycles could be given [3, 15]: 10 mg/m^2
